Measurements from ChEMBL document CHEMBL1128053, “Inhibition of matrix metalloproteinases by N-carboxyalkyl dipeptides: Enhanced potency and selectivity with substituted P1 homophenylalanines” (Bioorg Med Chem Lett, 1995).

What was measured:
[1] = molecular target: T1, Interstitial collagenase (Homo sapiens, UniProt P03956)
T1 sequence (P03956 whole entry): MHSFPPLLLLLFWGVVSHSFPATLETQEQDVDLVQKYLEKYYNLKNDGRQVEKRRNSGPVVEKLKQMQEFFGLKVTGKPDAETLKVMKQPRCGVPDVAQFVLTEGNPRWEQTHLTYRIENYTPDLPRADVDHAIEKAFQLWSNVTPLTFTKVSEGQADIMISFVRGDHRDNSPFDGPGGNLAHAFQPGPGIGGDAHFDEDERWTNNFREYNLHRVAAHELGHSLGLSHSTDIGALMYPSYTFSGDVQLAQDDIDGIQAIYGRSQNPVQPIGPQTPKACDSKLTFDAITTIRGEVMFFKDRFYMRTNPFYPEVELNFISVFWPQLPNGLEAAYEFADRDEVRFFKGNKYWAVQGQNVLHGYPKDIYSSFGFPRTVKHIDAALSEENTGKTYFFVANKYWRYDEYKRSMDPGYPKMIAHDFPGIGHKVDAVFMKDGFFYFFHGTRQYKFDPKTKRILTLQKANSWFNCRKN

[2] = molecular target: 72 kDa type IV collagenase (Homo sapiens, UniProt P08253)
Chain of 72 kDa type IV collagenase (P08253 whole entry): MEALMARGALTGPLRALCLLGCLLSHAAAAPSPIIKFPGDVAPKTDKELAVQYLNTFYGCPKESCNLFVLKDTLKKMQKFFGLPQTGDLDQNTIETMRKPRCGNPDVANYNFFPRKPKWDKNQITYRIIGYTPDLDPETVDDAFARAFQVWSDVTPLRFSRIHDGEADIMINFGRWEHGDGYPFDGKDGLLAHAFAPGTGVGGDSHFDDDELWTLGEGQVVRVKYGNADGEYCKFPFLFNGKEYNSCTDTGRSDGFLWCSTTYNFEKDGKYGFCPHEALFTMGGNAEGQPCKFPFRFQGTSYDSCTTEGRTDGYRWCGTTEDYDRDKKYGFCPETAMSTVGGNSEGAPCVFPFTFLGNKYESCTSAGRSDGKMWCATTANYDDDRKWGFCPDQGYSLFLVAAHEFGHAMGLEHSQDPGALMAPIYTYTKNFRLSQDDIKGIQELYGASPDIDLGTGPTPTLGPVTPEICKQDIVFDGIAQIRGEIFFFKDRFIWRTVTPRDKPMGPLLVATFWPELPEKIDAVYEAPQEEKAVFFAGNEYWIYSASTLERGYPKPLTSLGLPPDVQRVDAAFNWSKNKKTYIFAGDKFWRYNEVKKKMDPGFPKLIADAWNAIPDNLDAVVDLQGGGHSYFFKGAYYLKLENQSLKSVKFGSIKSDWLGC

Row | Ki [1] [nM] | Ki [2] [nM] | Structure (SMILES)
1 | > 10000 | 2.1 | CCCCc1ccc(CC[C@H](N[C@H](C)C(=O)O)C(=O)N[C@@H](CCCNC(=N)N)C(=O)Nc2ccccc2)cc1
2 | 470 | 210 | C[C@@H](N[C@@H](CCc1ccccc1)C(=O)N[C@@H](CCCNC(=N)N)C(=O)Nc1ccccc1)C(=O)O
3 | 2900 | 3 | CCCc1ccc(CC[C@H](N[C@H](C)C(=O)O)C(=O)N[C@@H](CCCN=C(N)N)C(=O)Nc2ccccc2)cc1
4 | 2700 |  | CC(C)C[C@H](NC(=O)[C@H](CCc1ccccc1O)N[C@H](C)C(=O)O)C(=O)Nc1ccccc1
5 | 7700 | 25 | Cc1ccc(CC[C@H](N[C@H](C)C(=O)O)C(=O)N[C@@H](CC(C)C)C(=O)Nc2ccccc2)cc1C
6 | 2300 | 12 | CCc1ccc(CC[C@H](N[C@H](C)C(=O)O)C(=O)N[C@@H](CC(C)C)C(=O)Nc2ccccc2)cc1
7 | 5100 | 110 | CC(C)C[C@H](NC(=O)[C@H](CCc1ccc(C(F)(F)F)cc1)N[C@H](C)C(=O)O)C(=O)Nc1ccccc1
8 | 870 | 220 | CC(C)C[C@H](NC(=O)[C@H](CCc1ccc(F)cc1)N[C@H](C)C(=O)O)C(=O)Nc1ccccc1
9 | 1500 |  | Cc1cccc(CC[C@H](N[C@H](C)C(=O)O)C(=O)N[C@@H](CC(C)C)C(=O)Nc2ccccc2)c1
10 | 1900 |  | Cc1ccc(CC[C@H](N[C@H](C)C(=O)O)C(=O)N[C@@H](CC(C)C)C(=O)Nc2ccccc2)cc1
11 | > 10000 | 6100 | CC(C)Cc1cccc(CC[C@H](N[C@H](C)C(=O)O)C(=O)N[C@@H](CC(C)C)C(=O)Nc2ccccc2)c1
12 | 1000 |  | CC(C)C[C@H](NC(=O)[C@H](CCc1ccc(O)cc1)N[C@H](C)C(=O)O)C(=O)Nc1ccccc1
13 | 2300 | 6.1 | CCOc1ccc(CC[C@H](N[C@H](C)C(=O)O)C(=O)N[C@@H](CCCNC(=N)N)C(=O)Nc2ccccc2)cc1
14 | 2100 | 77 | CC(C)C[C@H](NC(=O)[C@H](CCc1ccc(Cl)cc1)N[C@H](C)C(=O)O)C(=O)Nc1ccccc1
15 | > 10000 | > 10000 | COc1ccc(CC[C@H](N[C@H](C)C(=O)O)C(=O)N[C@@H](CC(C)C)C(=O)Nc2ccccc2)cc1OC
16 | > 10000 |  | COc1ccccc1CC[C@H](N[C@H](C)C(=O)O)C(=O)N[C@@H](CC(C)C)C(=O)Nc1ccccc1
17 | > 10000 | 4840 | Cc1cc(C)cc(CC[C@H](N[C@H](C)C(=O)O)C(=O)N[C@@H](CC(C)C)C(=O)Nc2ccccc2)c1
18 | > 10000 |  | COc1cccc(CC[C@H](N[C@H](C)C(=O)O)C(=O)N[C@@H](CC(C)C)C(=O)Nc2ccccc2)c1
19 | 3300 |  | CC(C)C[C@H](NC(=O)[C@H](CCc1cccc(Cl)c1)N[C@H](C)C(=O)O)C(=O)Nc1ccccc1
20 | > 10000 | 130 | CC(C)C[C@H](NC(=O)[C@H](CCc1ccc(C(C)C)cc1)N[C@H](C)C(=O)O)C(=O)Nc1ccccc1
21 | > 10000 | 11 | CC(C)Cc1ccc(CC[C@H](N[C@H](C)C(=O)O)C(=O)N[C@@H](CC(C)C)C(=O)Nc2ccccc2)cc1
22 | 510 |  | CC(C)C[C@H](NC(=O)[C@H](CCc1cccc(O)c1)N[C@H](C)C(=O)O)C(=O)Nc1ccccc1
23 | > 10000 |  | Cc1ccccc1CC[C@H](N[C@H](C)C(=O)O)C(=O)N[C@@H](CC(C)C)C(=O)Nc1ccccc1
24 | 5900 | 3.5 | CCCc1ccc(CC[C@H](N[C@H](C)C(=O)O)C(=O)N[C@@H](CC(C)C)C(=O)Nc2ccccc2)cc1
